≈ marks a conversion by molar mass, not a printed value. Like-named read-outs stand apart in the source and are kept apart here.
Experiments:
IL-10 = test: Ex vivo stimulated IL-10 in blood of subjects dosed 80 mg or 120 mg; design: species or system human; conditions: 80 mg or 120 mg BID
Method: Methods: Safety, pharmacokinetics (PK) and pharmacodynamics (PD) were assessed in two cohorts of subjects in a randomized, observer-blind, placebo-controlled study in male and female healthy subjects aged 18-55 (n=77). The study consisted of twenty (20) subjects enrolled into 2 cohorts. […] The final dose was administered in the morning on Day 7. Blood samples were obtained Day 1—before dosing, Day 1—4 hours after dosing and Day 1—12 hours after dosing and Day 7—before dosing, Day 7—4 hours after dosing, day 7—12 hour after dosing and Day 7—24 hours after dosing for each subject.

[1] = test system: p-HSP27 (phosphorylated heat shock protein 27); test: Ex vivo LPS-stimulated p-HSP27 in blood of dosed healthy subjects, PK/PD inhibitory Emax model; design: species or system human
Method: Blood samples of 10 mL were collected for PD analysis. For the SAD cohorts, blood was collected before dosing and 1, 12, and 24 hours after dosing. For the MAD cohorts, on day 1 blood was collected before the morning dose and 4 and 12 hours after the morning dose (prior to the evening dose); on day 7, blood was collected before the morning dose and 4 and 12 hours after the morning dose.
Additional details of the assays for analyzing p-HSP27 and cytokines are included in the Supplementary Information.
Pharmacodynamics. PD data analysis was conducted using Microsoft Excel 2010 (Microsoft, Redmond, WA), Meso Scale Discovery Workbench® analysis software (Rockville, MD), and Phoenix WinNonlin, version 8.2.
Sample Preparation for p-HSP27 Analysis. […] Treatment groups consisted of 3 tubes for group ‘A’, 2 tubes for group ‘B’, and 1 tube for group ‘C’.
Dimethyl sulfoxide (DMSO) was added to all tubes in groups ‘A’ and ‘C’ to a final concentration of 0.1% (10 μL per mL of a 10% DMSO solution in Dulbecco's Modified Eagle Medium (DMEM) containing 10% fetal bovine serum (FBS) and 1% penicillin/streptomycin/glutamine). Samples were then rocked gently at room temperature. […] Samples were then rocked gently at room temperature for a minimum of 1 hour.
Samples in groups ‘A’ and ‘B’ were stimulated with lipopolysaccharide at a final concentration of 100 ng/mL for 22 minutes at room temperature. A stock solution of lipopolysaccharide at 1 mg/mL in DMEM containing 10% FBS and 1% penicillin/streptomycin was diluted to 10 μg/mL in DMEM containing 10% FBS and 1% penicillin/streptomycin, and 10 μL of this working solution was added per mL of blood. Samples were gently rocked at room temperature for 11 minutes, then placed upright for 11 minutes prior to peripheral blood mononuclear cells (PBMC) isolation.
Ten μL of DMEM containing 10% FBS only was added per mL of blood in group ‘C’ for all patient samples (unstimulated samples). Samples were gently rocked at room temperature for 11 minutes, then placed upright for 11 minutes prior to PBMC isolation.
Upon completion of treatment (lipopolysaccharide stimulated or unstimulated) for each sample, PBMCs were isolated from each human whole blood aliquot in all treatment groups. One mL of blood from each sample was gently layered onto 0.75 mL of Histopaque-1077 in a 2-mL microcentrifuge tube. Histopaque-1077 was maintained at room temperature. The samples were centrifuged for 2 minutes at 16,000×g in an Eppendorf microcentrifuge. The interface and upper layers were removed and added to tubes containing 1 mL cold Dulbecco's phosphate-buffered saline (DPBS). These samples were then centrifuged for 30 seconds at 16,000×g in an Eppendorf microcentrifuge to pellet the cells. The buffer supernatant was removed by aspiration and the pellets were re-suspended in 1 mL of cold DPBS. The pellets from each sample were then re-pelleted, as described above. […]
Analysis of p-HSP27 (Ser78) Levels Using Luminex Technology. The lysates were analyzed for HSP27 phosphorylation with a custom Milliplex® MAP Human Phospho-HSP27(Ser78) Cell Signaling Magnetic Bead Kit from Millipore Sigma (Burlington, MA) using the kit-prescribed immunoassay protocol for a 96-well solid plate and hand-held magnetic separation block. […]

[2] = in vivo; cited from earlier work
IL-6 [3] = test: IL-1β stimulated IL-6 production in human whole blood; assay type: cell-based
Method: Compounds were serially diluted in 100% DMSO (Sigma-Aldrich, D2650) followed by a 10× dilution into RPMI (Gibco, 11875). After the one-hour incubation with the compounds or vehicle, 2 μL of IL-1β (R&D, 201-LB-010) in RPMI (Gibco, 11875) was added for a final concentration of 0.5 μg/mL to each well except for the no stimulus wells. […]

IL-1β = test: LPS stimulated IL-1β production in human whole blood; assay type: cell-based
Method: (§1) Compounds were serially diluted in 100% DMSO (Sigma-Aldrich, D2650) followed by a 50× dilution into DMEM/10% FBS (Gibco, 11965/26140). Vehicle consisted of DMSO at a final assay concentration of 0.1%. Pin tools (V&P Scientific, Inc., VP246) were placed in the wells and the plate was placed at 37° C. with 5% CO2, with gently shaking for five minutes, then pin tools were removed and saved. […] Pin tools were placed in the wells in the same orientation as the previous step and gently shook for five minutes at 37° C. with 5% CO2, then removed. […] The plasma was harvested and assayed for TNF-α, IL-1β, and IL-6 using Meso Scale Discovery Technology V-plex human cytokine kits according to the kit protocol. The kit plates were read using an MSD Sector S 6000 instrument. Calculations to establish cytokine calibration curves and to determine analyte concentrations in the samples were carried out using the MSD DISCOVERY WORKBENCH® analysis software.

IL-6 [4] = test: LPS stimulated IL-6 production in human whole blood; assay type: cell-based
Method: as §1

[5] = 13-week oral administration non-clinical safety study, mini-pig; assay type: in vivo; conditions: for Cmax / AUC(0-t): 60 mg/kg/day oral; for AUC(0-t): read-out: AUC0-24
Method: Study Design. […] Rats were administered 0 (vehicle), 3, 10 and 30 mg/kg/day, and Mini-pigs were administered 0 (vehicle) 10, 30 and 60 mg/kg/day

[6] = female, minipig, in vivo, study day 90, females
[7] = male, minipig, in vivo, study day 90, males

Cc1cnc(-c2ccnc(C(C)(C)O)n2)cc1-n1c(C)cc(OCc2ncc(F)cc2F)c(Cl)c1=O (single isomer, unassigned) [ATI-450, 3-chloro-4-((3,5-difluoropyridin-2-yl)methoxy)-2′-(2-(2-hydroxypropan-2-yl)pyrimidin-4-yl)-5′,6-dimethyl-2H-[1,4′-bipyridin]-2-one]
IL-10 modulation (IL-10): 25-30% | Cmax (Multiple of IC80) ([1]; 50 mg BID, day 7): 6.0x | Ctrough (Multiple of IC80) ([1]; 50 mg BID, day 7): 2.4x | IC80 ([1]; Homo sapiens, calculated from IC50, combined SAD and MAD data, read-out: IC80, plasma concentration at 80% of maximal inhibition): 0.0367 µg/mL | IC50 ([1]; Homo sapiens, inhibitory Emax model, combined SAD and MAD data, read-out: IC50, plasma concentration at half maximal inhibition): 0.0092 µg/mL | IC80, plasma concentration at 80% of maximal inhibition ([1]; calculated from IC50, combined SAD and MAD data): 0.0367 µg/mL | effect in rat streptococcal cell wall arthritis model [2]: joint protective effects and preserved bone mineral density | IC50 (IL-6 [3]; Human Whole Blood, IL-1β, 10 ng/mL, 5 hr): 11.1 ± 3.8 nM | IC80 (IL-6 [3]; human whole blood): 0.041 ± 0.02 µg/mL (≈ 0.0798 µM) | IC50 (IL-1β; Human Whole Blood, LPS, 100 ng/mL, 4 or 24 hr, read-out: IC50, IL-1β): 6.1 nM | IC50 (IL-1β; human whole blood, LPS 100 ng/mL, read-out: IC50, LPS-stimulated IL-1β): 10 to 100 nM | IC50 (IL-6 [4]; Human Whole Blood, LPS, 100 ng/mL, 4 or 24 hr, read-out: IC50, IL-6): 135 ± 97 nM | IC50 (IL-6 [4]; human whole blood, LPS 100 ng/mL, read-out: IC50, LPS-stimulated IL-6): 10 to 100 nM | mortality ([5]; 13-week oral, up to 60 mg/kg/day): No study drug-related mortality was observed | Cmax [5, 6]: 2360 ng/mL | AUC(0-t) [5, 6]: 22600 ng·h/mL | Cmax [5, 7]: 1670 ng/mL | AUC(0-t) [5, 7]: 14400 ng·h/mL | non-adverse findings, haematology ([5]; males at ≥10 mg/kg/day and females at 60 mg/kg/day): Slightly increased neutrophil, lymphocyte and platelet counts | NOAEL at 13 weeks ([5]; minipig, in vivo, 13-week oral, read-out: no-observed adverse effect level (NOAEL)): 60 mg/kg/day
